Row | logP | Compound
1 | 0.54 | CNC(=O)NS(=O)(=O)Cc1ccccc1
2 | 0.54 | CN(C)C(=O)NS(=O)(=O)Cc1ccccc1
3 | -0.65 | NC(=O)NS(=O)(=O)c1cccnc1
4 | 1.44 | CCCNC(=O)NS(=O)(=O)c1ccccc1
5 | 0.28 | CN(C)C(=O)NS(=O)(=O)c1ccccc1
6 | 0.99 | CCN(CC)C(=O)NS(=O)(=O)c1ccccc1
7 | 1.34 | CC(C)NC(=O)NS(=O)(=O)c1ccccc1

The next lines start with the compound.

Row | Compound | logP
8 | CCNC(=O)NS(=O)(=O)c1ccccc1 | 0.9
9 | CNC(=O)N(C)S(=O)(=O)c1cccnc1 | 0.42
10 | CNC(=O)NS(=O)(=O)c1ccccc1 | 0.44
11 | NC(=O)NS(=O)(=O)c1ccccc1 | 0.28
12 | CNC(=O)N(C)S(=O)(=O)Cc1ccccc1 | 1.18
13 | CNC(=O)NS(=O)(=O)c1cccnc1 | -0.45
14 | CC(C)(C)NC(=O)NS(=O)(=O)c1ccccc1 | 1.95
